Several values for one entry are separate records, joined by “and”; a condition that tells them apart may be missing. Identical values can stand only once.
Assays:
WT and eNOSKO mice = assay: ITT in wild-type and eNOS-knockout mice; assay type: in vivo, mouse; conditions: for Blood glucose: Insulin tolerance test, individual animals
Method: Fig. 7 DS20060511 treatment decreases blood glucose levels in both WT and eNOSKO mice during oral GTT and ITT. a, b Blood glucose levels during oral GTT in wild-type (WT, n = 5) and eNOS-knockout (KO, n = 5–6) mice. Mice received vehicle or DS20060511 (10 mg kg^−1) orally 15 min before the glucose administration (3.0 g kg^−1). c, d Blood glucose levels during ITT in WT (n = 4) and KO (n = 5) mice. […] Values shown are means ± SEM. *P < 0.05, **P < 0.01, ***P < 0.001 vs. vehicle by the t-test.
(§1) C57BL/6 and db/db mice were purchased from CLEA Japan, Tokyo, Japan. GLUT4- knockout mice were generated at RIKEN BioResource Center, Tsukuba, Japan, according to a previously described method. eNOS-knockout mice were kindly provided by Dr. Masato Tsutsui[41],[42]. The mice were group-housed under controlled illumination (12:12 h light-dark cycle) and temperature (23 ± 2 °C) conditions and given free access to normal chow and water, unless otherwise specified. The HFD-fed obese mice were prepared by feeding C57BL/6 mice a HFD for at least 8 weeks from 6 weeks of age. […] Male mice were used for all the experiments in this study. The animal care and experimental procedures used in the study were approved by The University of Tokyo Animal Care Committee (Approval number: 27-3), and the study was carried out in accordance with the Animal Experimentation Guidelines of Daiichi Sankyo Co., Ltd (Approved number: 20000411).
Mice received the indicated oral dose of DS20060511 or vehicle at the same time as the intraperitoneal injection of insulin (Humulin) at the indicated dose. Blood glucose levels were measured using Glutest Every in blood samples collected from the tail vein at the indicated timepoints.

HFD-fed mice = assay: Oral GTT in normal-chow and high-fat diet (HFD)-fed mice; assay type: in vivo, mouse; conditions: for Blood glucose / Plasma insulin: Glucose tolerance test, HFD, 30 mg/kg, individual animals
Method: Fig. 8 Acute and chronic DS20060511 treatment improves glucose intolerance in HFD-fed and db/db mice. a Blood glucose and plasma insulin levels during an oral GTT in normal-chow (NC)- and high-fat diet (HFD)-fed mice (n = 5). Vehicle or DS20060511 (30 mg kg^−1) was given orally 15 min before the oral glucose administration (1.5 g kg^−1). Values shown are means ± SEM. *P < 0.05, **P < 0.01, ***P < 0.001 vs. the HFD vehicle by the t-test. b Effects of 10 μM DS20060511 and 100 nM insulin on 2-DG uptake in muscles isolated from NC-fed (n = 6) and HFD-fed (n = 5) mice. Values shown are means ± SEM. **P < 0.01 by one-way ANOVA followed by Tukey’s test. c, d Changes in the blood glucose levels and AUC on day 1 and day 28 during refeeding (n = 6) in db/db mice treated chronically with DS20060511 (10 mg kg^−1 day^−1). Values shown are means ± SEM. *P < 0.05, **P < 0.01, ***P < 0.001 vs. vehicle by the t-test. e Change of the HbA1c levels in the db/db (n = 6) mice at 4 weeks. Values shown are means ± SEM. *P < 0.05 vs. vehicle by the t-test.
as §1
Mice that had been denied access to food overnight received the indicated oral dose of DS20060511 or vehicle 15 min prior to the glucose load (1.5 g kg^−1, except for eNOS-knockout mice, which received 3.0 g kg^−1). Then, after the oral glucose load, the blood glucose levels were measured using Glutest Every in samples obtained from the tail vein at the indicated timepoints. Plasma insulin concentrations were also measured with an ELISA kit (Morinaga Institute of Biological Science, Yokohama, Japan) in blood samples collected from the tail vein at the indicated timepoints.

Question: With `COc1ccc2c(C)c(C(=O)O)ccc2c1C1C2=C(CC(C)(C)CC2=O)OC2=C1C(=O)CC(C)(C)C2` [DS20060511] as the molecule, how does the Blood glucose (WT and eNOSKO mice; Wildtype, 10 mg/kg, 0 min) read?
Answer: 176 mg/dL and 163 mg/dL and 183 mg/dL and 182 mg/dL

Question: What about the Blood glucose (WT and eNOSKO mice; Wildtype, 10 mg/kg, 20 min) of the same molecule?
Answer: 96 mg/dL and 77 mg/dL and 89 mg/dL and 88 mg/dL

Question: And the Blood glucose (WT and eNOSKO mice; Wildtype, 10 mg/kg, 40 min)?
Answer: 60 mg/dL and 67 mg/dL and 74 mg/dL

Question: What about the Blood glucose (WT and eNOSKO mice; Wildtype, 10 mg/kg, 60 min) of the same molecule?
Answer: 58 mg/dL and 71 mg/dL and 70 mg/dL and 52 mg/dL

Question: What about the Blood glucose (WT and eNOSKO mice; Wildtype, 10 mg/kg, 80 min) of the same molecule?
Answer: 57 mg/dL and 67 mg/dL and 68 mg/dL and 53 mg/dL

Question: What about the Blood glucose (WT and eNOSKO mice; Wildtype, 10 mg/kg, 100 min) of the same molecule?
Answer: 63 mg/dL and 84 mg/dL and 67 mg/dL and 58 mg/dL

Question: And the Blood glucose (WT and eNOSKO mice; Wildtype, 10 mg/kg, 120 min)?
Answer: 57 mg/dL and 74 mg/dL and 70 mg/dL

Question: What about the Blood glucose (WT and eNOSKO mice; eNOSKO, 30 mg/kg, 0 min) of the same molecule?
Answer: 191 mg/dL and 175 mg/dL and 168 mg/dL and 169 mg/dL

Question: What about the Blood glucose (WT and eNOSKO mice; eNOSKO, 30 mg/kg, 20 min) of the same molecule?
Answer: 95 mg/dL and 89 mg/dL and 100 mg/dL and 120 mg/dL and 97 mg/dL

Question: What about the Blood glucose (WT and eNOSKO mice; eNOSKO, 30 mg/kg, 40 min) of the same molecule?
Answer: 69 mg/dL and 75 mg/dL and 81 mg/dL and 76 mg/dL

Question: What about the Blood glucose (WT and eNOSKO mice; eNOSKO, 30 mg/kg, 60 min) of the same molecule?
Answer: 61 mg/dL and 64 mg/dL and 40 mg/dL and 41 mg/dL and 51 mg/dL

Question: What about the Blood glucose (WT and eNOSKO mice; eNOSKO, 30 mg/kg, 80 min) of the same molecule?
Answer: 66 mg/dL and 55 mg/dL and 39 mg/dL and 48 mg/dL

Question: What about the Blood glucose (WT and eNOSKO mice; eNOSKO, 30 mg/kg, 100 min) of the same molecule?
Answer: 72 mg/dL and 53 mg/dL and 35 mg/dL and 34 mg/dL and 39 mg/dL

Question: And the Blood glucose (WT and eNOSKO mice; eNOSKO, 30 mg/kg, 120 min)?
Answer: 76 mg/dL and 49 mg/dL and 55 mg/dL and 37 mg/dL and 39 mg/dL

Question: What about the “blood glucose levels during ITT (in words)” value (WT and eNOSKO mice; WT and eNOSKO mice, 30 mg kg−1 po with 0.5 U kg−1 insulin ip) of the same molecule?
Answer: reduced even further

Question: And the Blood glucose (HFD-fed mice; 0 min)?
Answer: 194 mg/dL and 178 mg/dL and 193 mg/dL and 108 mg/dL and 185 mg/dL

Question: What about the Plasma insulin (HFD-fed mice; 0 min) of the same molecule?
Answer: 0.79 ng/mL and 1.09 ng/mL and 0.57 ng/mL and 0.32 ng/mL and 0.69 ng/mL

Question: What about the Blood glucose (HFD-fed mice; 15 min) of the same molecule?
Answer: 331 mg/dL and 278 mg/dL and 279 mg/dL and 180 mg/dL and 270 mg/dL

Question: What about the Plasma insulin (HFD-fed mice; 15 min) of the same molecule?
Answer: 3.22 ng/mL and 2.72 ng/mL and 2.47 ng/mL and 1.43 ng/mL and 1.91 ng/mL

Question: And the Blood glucose (HFD-fed mice; 30 min)?
Answer: 200 mg/dL and 213 mg/dL and 232 mg/dL and 161 mg/dL

Question: What about the Plasma insulin (HFD-fed mice; 30 min) of the same molecule?
Answer: 1.03 ng/mL and 1.28 ng/mL and 0.97 ng/mL and 0.53 ng/mL and 0.78 ng/mL

Question: And the Blood glucose (HFD-fed mice; 60 min)?
Answer: 209 mg/dL and 214 mg/dL and 235 mg/dL and 141 mg/dL and 229 mg/dL

Question: What about the Blood glucose (HFD-fed mice; 90 min) of the same molecule?
Answer: 199 mg/dL and 201 mg/dL and 204 mg/dL and 164 mg/dL and 209 mg/dL

Question: And the Blood glucose (HFD-fed mice; 120 min)?
Answer: 188 mg/dL and 154 mg/dL and 227 mg/dL and 155 mg/dL and 189 mg/dL

Question: And the Blood glucose (HFD-fed mice; -15 min)?
Answer: 212 mg/dL and 167 mg/dL and 176 mg/dL and 120 mg/dL and 197 mg/dL

Question: What about the Plasma insulin (HFD-fed mice; -15 min) of the same molecule?
Answer: 1.31 ng/mL and 2.09 ng/mL and 1.16 ng/mL and 0.67 ng/mL

Question: And the “blood glucose levels during oral GTT (in words)” value (HFD-fed mice; HFD-fed mice, 30 mg kg−1 po)?
Answer: significantly decreased the blood glucose levels

Question: And the “plasma insulin levels during oral GTT (in words)” value (HFD-fed mice; HFD-fed mice, 30 mg kg−1 po)?
Answer: rather decreased

— publication PMC8379256, “A xanthene derivative, DS20060511, attenuates glucose intolerance by inducing skeletal muscle-specific GLUT4 translocation in mice” (Communications Biology, 2021)
